# Measurements reported in US11130741B2 (Bioimics AB, priority 2016, dated 2021).
# Where a name gives a salt, the structure may show the parent alone. Read-outs that look alike come from different tables or passages of the source.
# Assays:
# [1] = test system: E. coli RNase P RNA, M1 RNA; test: Inhibition of bacterial RNase P activity, IC50 determination (cleavage of pATSerUG by M1 RNA); assay type: biochemical; conditions: NI = No inhibition
# [2] = test system: Staphylococcus aureus subsp. aureus (ATCC29213); test: MIC, broth microdilution (CLSI), Staphylococcus aureus subsp. aureus ATCC29213; assay type: cell-based; conditions: ATCC29213, Table 15, read-out: S. aureus ("wound") (MIC)
# [3] = test system: Escherichia coli (ATCC25922); test: MIC, broth microdilution (CLSI), Escherichia coli ATCC25922
# [4] = test system: Staphylococcus aureus (ATCC25923); test: MIC, broth microdilution (CLSI), Staphylococcus aureus ATCC25923; conditions: ATCC25923, read-out: S. aureus ("Clinical") MIC
# Method: Initial minimal inhibitory concentration (MIC) tests were made on two bacterial strains: • Escherichia coli (ATCC25922) • Staphylococcus aureus (ATCC25923).
# Minimal Inhibitory Concentration (MIC)
# MIC values were determined using the standard broth microdilution procedure based on the guidelines by the Clinical and Laboratory Standards Institute (CLSI). Briefly, the compounds were dissolved in DMSO to 10 mM. They were diluted in cation-adjusted Mueller-Hinton broth (CAMHB) to four times the highest concentration tested. A serial 2-fold dilution in CAMHB was done in microdilution plates. The inoculum of bacterial strain to be tested was prepared by making a suspension of colonies from an 18 to 24 hours old plate in CAMHB. The inoculum was diluted so that, after inoculation, each well contained approximately 5×10^5 CFU/mL. To a volume of 50 μl compound in CAMHB an equal volume of inoculum was added. The tray was sealed in a plastic bag and incubated at 35° C. for 16 to 20 hours. To aid in the detection of growth the dye resazurin was added to a final concentration 0.001% and incubated at room temperature for 1 h. Reduction of resazurin, and therefore bacterial growth, was seen as a change from blue to pink.
# [5] = ATCC25922, read-out: E. coli MIC, Table 15, NI = No inhibition
# [6] = ATCC25922, read-out: E. coli MIC
Structure (SMILES),IC50 [1] [µM],MIC [2] [µg/mL],"MIC [3, 5] [µg/mL]",MIC [4] [µg/mL],"MIC [3, 6] [µg/mL]"
"CC1CCCCN1c1ccc2c(c1)Sc1cc(C(F)(F)F)cc(NC3CCN(CCN)CC3)c1N2.Cl.Cl.Cl (stereo not drawn) [compound 314, N-(1-(2-aminoethyl)piperidin-4-yl)-7-(2-methyl-piperidin-1-yl)-3-(trifluoromethyl)-10H-phenothiazin-1-amine hydrochloride]",30,4,8,,
"NC1CCCC(CC(=O)Nc2cc(C(F)(F)F)cc3c2Nc2ccccc2S3)C1.O=C(O)C(F)(F)F (stereo not drawn) [compound 165, 2-(3-aminocyclohexyl)-N-(3-(trifluoromethyl)-10H-phenothiazin-1-yl)acetamide 2,2,2-trifluoroacetate]",,,34,17,
"Cl.Cl.NCCN1CCC(Nc2cc(C(F)(F)F)cc3c2Nc2ccc(N4CCC(F)(F)C4)cc2S3)CC1 [compound 303, N-(1-(2-aminoethyl)piperidin-4-yl)-7-(3,3-difluoro-pyrrolidin-1-yl)-3-(trifluoromethyl)-10H-phenothiazin-1-amine hydrochloride]",9.7,8,32,,
"CN(C)C1CCN(c2ccc3c(c2)Sc2cc(C(F)(F)F)cc(NC4CCN(CCN)CC4)c2N3)CC1.Cl.Cl [compound 295, N-(1-(2-aminoethyl)piperidin-4-yl)-7-(4-(dimethylamino)piperidin-1-yl)-3-(trifluoromethyl)-10H-phenothiazin-1-amine hydrochloride]",21,32,128,,
"NCCC1CCC(CNc2cc(C(F)(F)F)cc3c2Nc2ccccc2S3)CC1 (stereo not drawn) [compound 179, N-((4-(2-aminoethyl)cyclohexyl)methyl)-3-(trifluoromethyl)-10H-phenothiazin-1-amine]",,,12,3,
"Cl.NCCN1CCC(Nc2cc(C(F)(F)F)cc3c2Nc2ccc(N4CC5(CCC5)C4)cc2S3)CC1 [compound 325, N-(1-(2-aminoethyl)piperidin-4-yl)-7-(2-azaspiro [3.3]heptan-2-yl)-3-(trifluoromethyl)-10H-phenothiazin-1-amine hydrochloride]",6.4,2,8,,
"Cc1c(-c2ccc3c(c2)Sc2ccccc2N3CCCN(C)C)[nH]c2ccccc12 [compound 198, N,N-dimethyl-3-(3-(3-methyl-1H-indol-2-yl)-10H-phenothiazin-10-yl)propan-1-amine]",,,,3,
"Cl.Cl.NCCN(CCN)CCN1CCC(Nc2cc(C(F)(F)F)cc3c2Nc2ccc(Br)cc2S3)CC1 [compound 331, N1-(2-aminoethyl)-N1-(2-(4-((7-bromo-3-(trifluoromethyl)-10H-phenothiazin-1-yl)amino)piperidin-1-yl)ethyl)ethane-1,2-diamine hydrochloride]",5.1,4,8,,
"Cl.Cl.NC1CCCC(C(=O)Nc2cc(C(F)(F)F)cc3c2Nc2ccc(Br)cc2S3)C1 (stereo not drawn) [compound 312, 3-amino-N-(7-bromo-3-(trifluoromethyl)-10H-phenothiazin-1-yl)cyclohexane-1-carboxamide hydrochloride]",12,2,16,,
"CN(C)CCCN1c2ccc(-c3cc4ccccc4[nH]3)cc2Sc2cc([N+](=O)[O-])ccc21 [compound 241, 3-(3-(1H-indol-2-yl)-7-nitro-10H-phenothiazin-10-yl)-N,N-dimethylpropan-1-amine]",,,,4,
"NC(Cc1c[nH]c2ccccc12)C(=O)Nc1cc(C(F)(F)F)cc2c1Nc1ccccc1S2 (stereo not drawn) [compound 253, 2-amino-3-(1H-indol-3-yl)-N-(3-(trifluoromethyl)-10H-phenothiazin-1-yl)propanamide]",,,,2,
"CC1CCN(c2ccc3c(c2)Sc2cc(C(F)(F)F)cc(NC4CCN(CCN)CC4)c2N3)C1.Cl.Cl (stereo not drawn) [compound 311, N-(1-(2-aminoethyl)piperidin-4-yl)-7-(3-methyl-pyrrolidin-1-yl)-3-(trifluoromethyl)-10H-phenothiazin-1-amine hydrochloride]",2.5,2,8,,
"Cl.NCCNCCCNc1cc(C(F)(F)F)cc2c1Nc1ccccc1S2 [compound 297, N1-(2-aminoethyl)-N3-(3-(trifluoromethyl)-10H-phenothiazin-1-yl)propane-1,3-diamine hydrochloride]",43,16,32,,
"CCOC(=O)c1ccc2c(c1)Sc1cc(-c3cc4ccccc4[nH]3)ccc1N2CCCN [compound 258, ethyl 10-(3-aminopropyl)-7-(1H-indol-2-yl)-10H-phenothiazine-3-carboxylate]",24,2,128,,
"CN(C)C1CCN(c2ccc3c(c2)Sc2cc(C(F)(F)F)cc(NC4CCN(CCN)CC4)c2N3)C1.Cl.Cl (stereo not drawn) [compound 299, N-(1-(2-aminoethyl)piperidin-4-yl)-7-(3-(dimethylamino)pyrrolidin-1-yl)-3-(trifluoromethyl)-10H-phenothiazin-1-amine hydrochloride]",6.8,8,32,,
"CC1(C)CCN(c2ccc3c(c2)Sc2cc(C(F)(F)F)cc(NC4CCN(CCN)CC4)c2N3)C1.Cl [compound 332, N-(1-(2-aminoethyl)piperidin-4-yl)-7-(3,3-dimethyl-pyrrolidin-1-yl)-3-(trifluoromethyl)-10H-phenothiazin-1-amine hydrochloride]",4.1,1,8,,
"CC1CC(C)N1c1ccc2c(c1)Sc1cc(C(F)(F)F)cc(NC3CCN(CCN)CC3)c1N2.Cl (stereo not drawn) [compound 337, N-(1-(2-aminoethyl)piperidin-4-yl)-7-(2,4-dimethyl-azetidin-1-yl)-3-(trifluoromethyl)-10H-phenothiazin-1-amine hydrochloride]",26,2,4,,
"Cl.NCCNCCCNc1cc(C(F)(F)F)cc2c1Nc1ccc(Br)cc1S2 [compound 298, N1-(2-aminoethyl)-N3-(7-bromo-3-(trifluoromethyl)-10H-phenothiazin-1-yl)propane-1,3-diamine]",14,8,8,,
"COc1ccc2c(c1)Sc1cc(-c3cc4ccccc4[nH]3)ccc1N2CCCN(C)C [compound 254, 3-(3-(1H-indol-2-yl)-7-methoxy-10H-phenothiazin-10-yl)-N,N-dimethylpropan-1-amine]",,,,2,
"NCCN1CCC(Nc2cc(C(F)(F)F)cc3c2Nc2ncccc2S3)CC1 [compound 268, N-(1-(2-aminoethyl)piperidin-4-yl)-7-(trifluoromethyl)-10H-benzo[b] pyrido[2,3-e] [1,4]thiazin-9-amine]",31,8,4,,
"CC1CCN(c2ccc3c(c2)Sc2cc(C(F)(F)F)cc(NC4CCN(CCN)CC4)c2N3)C1C.Cl (stereo not drawn) [compound 336, N-(1-(2-aminoethyl)piperidin-4-yl)-7-(2,3-dimethyl-pyrrolidin-1-yl)-3-(trifluoromethyl)-10H-phenothiazin-1-amine hydrochloride]",19,1,4,,
"Cl.Cl.NCCN1CCC(Nc2cc(C(F)(F)F)cc3c2Nc2ccc(C(=O)N4CCCC4)cc2S3)CC1 [compound 293, (9-((1-(2-aminoethyl)piperidin-4-yl)amino)-7-(trifluoromethyl)-10H-phenothiazin-3-yl)(pyrrolidin-1-yl)methanone hydrochloride]",62,8,16,,
"N#Cc1ccc2c(c1)Sc1cc(N3CCN(CCN)CC3)ccc1N2CCCN [compound 292, 7-(4-(2-aminoethyl)piperazin-1-yl)-10-(3-aminopropyl)-10H-phenothiazine-3-carbonitrile trifluoro acetic acid]",140,128,,,> 128
"OCC1CCC(Nc2cc(C(F)(F)F)cc3c2Nc2ccccc2S3)CC1 (stereo not drawn) [compound 192, (4-((3-(trifluoromethyl)-10H-phenothiazin-1-yl)amino)cyclohexyl) methanol]",,,,6,
"NCCCN1c2ccc(N3CCN(CCN)CC3)cc2Sc2cc(C(F)(F)F)ccc21 [compound 266, 3-(3-(4-(2-aminoethyl)piperazin-1-yl)-7-(trifluoromethyl)-10H-phenothiazin-10-yl)propan-1-amine hydrochloride]",31,16,,,64
"Cl.NC1CCCC(C(=O)Nc2cc(C(F)(F)F)cc3c2Nc2ccc(N4CCCC4)cc2S3)C1 (stereo not drawn) [compound 294, 3-amino-N-(7-(pyrrolidin-1-yl)-3-(trifluoromethyl)-10H-phenothiazin-1-yl)cyclohexane-1-carboxamide hydrochloride]",2.4,8,64,,
"Cl.Cl.NCCN1CCC(Nc2cc(C(F)(F)F)cc3c2Nc2ccc(N4CCC5(CCCC5)C4)cc2S3)CC1 [compound 322, N-(1-(2-aminoethyl)piperidin-4-yl)-7-(2-azaspiro [4.4]nonan-2-yl)-3-(trifluoromethyl)-10H-phenothiazin-1-amine hydrochloride]",,1,4,,
"Cl.Cl.NCCN1CCC(Nc2cc(C(F)(F)F)cc3c2Nc2ccc(N4CCCCC4)cc2S3)CC1 [compound 289, N-(1-(2-aminoethyl)piperidin-4-yl)-7-(piperidin-1-yl)-3-(trifluoromethyl)-10H-phenothiazin-1-amine hydrochloride]",,4,8,,
"Cl.NCCN1CCC(Nc2cc(C(F)(F)F)cc3c2Nc2ccc(N4CC5CCC4C5)cc2S3)CC1 (stereo not drawn) [compound 327, N-(1-(2-aminoethyl)piperidin-4-yl)-7-(2-azabicyclo [2.2.1]heptan-2-yl)-3-(trifluoromethyl)-10H-phenothiazin-1-amine hydrochloride]",,1,4,,
